In patent publication US20080193398A1, “Derivatives of Heptaazaphenalene, Methods for Obtaining Them, and Their Use as Protecting Agents Against Uv Radiation” (ISDIN, S.A., priority 2005, published 2008):

Test: UV absorption (UV λmax and εmax) in solution
Assay type: physicochemical
Details: DMSO
From the text: There follow some examples where the UV λmax and εmax have been measured according to general methods known for the person skilled in the art by way of non-restrictive illustration of the present invention.

Row | Compound | UV λmax | εmax
1 | COC(=O)c1ccc(-c2ccc(NC3=NC4=NC(Nc5ccc(-c6ccc(C(=O)OC)cc6)cc5)=NC5=NC(Nc6ccc(-c7ccc(C(=O)OC)cc7)cc6)=NC(=N3)N45)cc2)cc1 [Example 23, 2,5,8-tris-(methoxycarbonyl-4′-biphenyl-4-ylamino)-1,3,4,6,7,9,9b-heptaazaphenalene] | 346 nm | 99000 M⁻¹ cm⁻¹
2 | c1ccn2cc(-c3ccc(NC4=NC5=NC(Nc6ccc(-c7cn8ccccc8n7)cc6)=NC6=NC(Nc7ccc(-c8cn9ccccc9n8)cc7)=NC(=N4)N56)cc3)nc2c1 [Example 3, 2,5,8-tris-(4-(imidazo[1,2-a]pyridin-2-yl)-phenylamino)-1,3,4,6,7,9,9b-heptaazaphenalene] | 353 nm | 75000 M⁻¹ cm⁻¹
3 | CCCCC(CC)CNC1=NC2=NC(NCC(CC)CCCC)=NC3=NC(NCC(CC)CCCC)=NC(=N1)N23 (stereo not drawn) [Example 29, 2,5,8-tris-(2-ethylhexylamino)-1,3,4,6,7,9,9b-heptaazaphenalene] | 265 nm | 92000 M⁻¹ cm⁻¹
4 | CCCCCCCCCCCCOC(=O)c1ccc(NC2=NC3=NC(Nc4ccc(C(=O)OCCCCCCCCCCCC)cc4)=NC4=NC(Nc5ccc(C(=O)OCCCCCCCCCCCC)cc5)=NC(=N2)N34)cc1 [Example 44, 2,5,8-tris-(4-(dodecyloxycarbonyl)phenylamino)-1,3,4,6,7,9,9b-heptaazaphenalene] | 326 nm | 87000 M⁻¹ cm⁻¹
5 | CC12CCC(C1)C(C)(C)C2OC(=O)c1ccc(NC2=NC3=NC(Nc4ccc(C(=O)OC5C6(C)CCC(C6)C5(C)C)cc4)=NC4=NC(Nc5ccc(C(=O)OC6C7(C)CCC(C7)C6(C)C)cc5)=NC(=N2)N34)cc1 (stereo not drawn) [Example 45] | 330 nm | 150000 M⁻¹ cm⁻¹
6 | C(=C\c1cccc(NC2=NC3=NC(Nc4cccc(/C=C/c5ccccc5)c4)=NC4=NC(Nc5cccc(/C=C/c6ccccc6)c5)=NC(=N2)N34)c1)/c1ccccc1 [Example 37, 2,5,8-tris-((3-(E)-styrylphenyl)amino)-1,3,4,6,7,9,9b-heptaazaphenalene] | 316 nm | 167000 M⁻¹ cm⁻¹
7 | CCCCCCCCCCCCCCCCCCOC(=O)c1ccc(NC2=NC3=NC(Nc4ccc(C(=O)OCCCCCCCCCCCCCCCCCC)cc4)=NC4=NC(Nc5ccc(C(=O)OCCCCCCCCCCCCCCCCCC)cc5)=NC(=N2)N34)cc1 [Example 40, 2,5,8-tris-(4-(octadecyloxycarbonyl)phenylamino)-1,3,4,6,7,9,9b-heptaazaphenalene] | 324 nm | 117000 M⁻¹ cm⁻¹
8 | c1ccc(-c2ccc(NC3=NC4=NC(Nc5ccc(-c6ccccc6)cc5)=NC5=NC(Nc6ccc(-c7ccccc7)cc6)=NC(=N3)N45)cc2)cc1 [Example 6, 2,5,8-tris-(biphenyl-4-ylamino)-1,3,4,6,7,9,9b-heptaazaphenalene] | 333 nm | 103000 M⁻¹ cm⁻¹
9 | Cc1ccc(C2=NC3=NC(c4ccc(C)cc4)=NC4=NC(c5ccc(C)cc5)=NC(=N2)N34)cc1 [Example 25, 2,5,8-tris-(4-methylphenyl)-1,3,4,6,7,9,9b-heptaazaphenalene] | 327 nm | 86000 M⁻¹ cm⁻¹
10 | COc1ccc(NC2=NC3=NC(Nc4ccc(OC)cc4)=NC4=NC(Nc5ccc(OC)cc5)=NC(=N2)N34)cc1 [Example 21, 2,5,8-tris-(4-methoxyphenylamino)-1,3,4,6,7,9,9b-heptaazaphenalene] | 324 nm | 59000 M⁻¹ cm⁻¹

Same assay, conditions: EtOH

Row | Compound | UV λmax | εmax
11 | Cc1cc2c(n1-c1ccc(NC3=NC4=NC(Nc5ccc(-n6c(C)cc7c6CC(C)(C)CC7=O)cc5)=NC5=NC(Nc6ccc(-n7c(C)cc8c7CC(C)(C)CC8=O)cc6)=NC(=N3)N45)cc1)CC(C)(C)CC2=O [Example 4, 2,5,8-tris-(4-(4,5,6,7-tetrahydro-2,6,6-trimethyl-4-oxoindol-1-yl)phenylamine)-1,3,4,6,7,9,9b-heptaazaphenalene] | 314 nm | 103000 M⁻¹ cm⁻¹

Same assay, conditions: MeOH

Row | Compound | UV λmax | εmax
12 | COc1cccc(NC2=NC3=NC(Nc4cccc(OC)c4)=NC4=NC(Nc5cccc(OC)c5)=NC(=N2)N34)c1 [Example 20, 2,5,8-tris-(3-methoxyphenylamino)-1,3,4,6,7,9,9b-heptaazaphenalene] | 312 nm | 62000 M⁻¹ cm⁻¹

Test: not given
Details: not given

Row | Compound | melting point
13 | COc1cccc(NC2=NC3=NC(Nc4cccc(OC)c4)=NC4=NC(Nc5cccc(OC)c5)=NC(=N2)N34)c1 [Example 20, 2,5,8-tris-(3-methoxyphenylamino)-1,3,4,6,7,9,9b-heptaazaphenalene] | > 275 °C
14 | c1ccc2[nH]c(-c3ccc(NC4=NC5=NC(Nc6ccc(-c7nc8ccccc8[nH]7)cc6)=NC6=NC(Nc7ccc(-c8nc9ccccc9[nH]8)cc7)=NC(=N4)N56)cc3)nc2c1 [Example 8, 2,5,8-tris-(4-(1H-benzo[d]imidazol-2-yl)phenylamino)-1,3,4,6,7,9,9b-heptaazaphenalene] | > 275 °C
15 | c1ccc(-c2ccc(NC3=NC4=NC(Nc5ccc(-c6ccccc6)cc5)=NC5=NC(Nc6ccc(-c7ccccc7)cc6)=NC(=N3)N45)cc2)cc1 | > 310 °C
